According to patent US11484591B2, “Chemoprevention using controlled-release formulations of anti-interleukin 6 agents, synthetic vitamin A analogues or metabolites, and estradiol metabolites” (OHIO STATE INNOVATION FOUNDATION, priority 2016, dated 2022):
Entries after “also recorded” stand apart in the source; their conditions may differ. One block for each molecule: values may come before it.

What was measured:
[1] = tested on: EGFR, ERK1/2 and STAT3 phosphorylation; test: Effect of receptor targeted inhibitors on OSCC signaling (immunoblot); assay type: cell-based, human; settings: 100 nM
Description: The accompanying histogram depicts levels of phosphorylated […], ERK1/2 and STAT3 relative to GAPDH.
Dosing levels were determined by concurrent proliferation and viability studies in conjunction with literature values. The cells in every treatment group were then stimulated for 20 minutes with: vehicle (1 μl ddH2O), 50 ng/ml EGF, 50 ng/ml VEGF, or 50 ng/ml EGF+50 ng/ml VEGF, followed by standard immunoblotting and data normalization relative to GAPDH. […] Immunoblot images were captured (Li-Cor Odyssey imager) and analyzed (Li-Cor Image Studio, Version 4.0) to depict effects on treatment on phosphorylation relative to respective levels of GAPDH.

[2] = tested on: sIL-6R; test: sIL-6R release from OSCC cell lines (ELISA); assay type: cell-based, human; settings: 5 μM 4-HPR, 2.5 μM 2-ME, 1 μg/ml TOC, 24 h
Description: FIGS. 5A and 5B show the evaluation of the effects of single and combination treatment of fenretinide (4-HPR, 5 μM), 2-methoxyestradiol (2-ME, 2.5 μM) and the IL-6R inhibitor TOC (1 ug/ml) on STAT3-DNA binding and on release of the stromal and tumor cell activating, trans-signaling molecule, sIL-6R. (A) Treatment effects of STAT3-DNA binding. All cell lines with constitutive pSTAT3 expression (2095sc, JSCC1, JSCC2) were sera deprived for 24 h, followed by an additional 24 hours of treatment in sera-free medium that contained: control (0.1% DMSO), 5 μM 4-HPR, 2.5 μM 2-ME, 1 μg/ml TOC (initial agent concentrations same for single and combinations). As the JSCC3 cells don't constitutively express pSTAT3, these cells underwent 24 h stimulation in base medium supplemented with 10 ng/mL of IL-6 and 5 ng/mL of TGF-α, with or without 4-HPR, 2-ME and TOC followed by harvest. […] (n=13, Kruskal Wallis ANOVA followed by Dunn's Multiple Comparison post hoc test). […] (B) Effects of treatment on cell line release of sIL-6R. All four cell lines released sIL-6R [levels ranges from ˜750 fg/10^6 (JSCC2 cells baseline) to ˜3,000 fg/10^6 cells (stimulated JSCC3 cells, baseline production JSCC3˜2,000 fg/10^6 cells). […]

[3] = tested on: SCC2095sc cells; test: OSCC tumor xenografts, tumor volume; assay type: in vivo, nude mice; settings: for inhibition of established OSCC tumor growth / tumor size: discussion of xenograft study
Description: One million SCC2095sc cells (suspended in 100 μl Matrigel) were subcutaneously injected in flanks of 6 to 7 week old male nude mice (n=6 per treatment group). By day 14 post injection, all mice had palpable and measurable tumors. Treatment began on day 15. Caliper-based tumor measurements were recorded daily and final tumor volumes calculated via tumor volume V=(length×width)×½. Treatment groups consisted of: 1) control (PBS injections)+blank (no drug) polylactide co-glycolide (PLGA) implants, 2) 2-methoxyestradiol (2-ME) (1 μg/100 μl PBS, b.i.d.)+blank PLGA implant, 3) fenretinide (4-HPR) releasing PLGA implant+PBS injections, 4) tocilizumab (TOC) q.d. (0.3 μg/100 μl PBS)+PLGA blank implant, 5) 2-ME (1 μg/100 μl PBS, b.i.d.)+4-HPR releasing PLGA implant, 6) 2-ME (1 μg/100 μl PBS, b.i.d.)+TOC q.d. (0.3 μg/100 μl PBS)+blank PLGA implant, 7) TOC q.d. (0.3 μg/100 μl PBS)+4-HPR releasing PLGA implant, 8) 2-ME (1 μg/100 μl PBS, b.i.d.)+TOC q.d. (0.3 μg/100 μl PBS)+4-HPR releasing PLGA implant. In previous studies that employed younger mice tumors of varying sizes were disbursed among all treatment groups. Due to the older age of mice >6 weeks and the accompanying cage aggression tumor size distribution was not feasible in these studies. As a result, mean tumor volumes varied appreciably among treatment groups. PLGA implants (trocar placement) and injections were placed in the center of the tumor. Fluid dispersion throughout tumor was noted during injections. At day 28 post OSCC xenograft placement the mice were sacrificed, OSCC tumors along with lung and liver tissues and sera were harvested (for PK and histologic analyses). […] Provided the discrepancy in pretreatment tumor volumes (TOC the lowest, triple treatment second highest with its mean nearly two fold higher than TOC mean), the TOC+2-ME+4-HPR data are especially creditable.
(§1) SCC2095sc cells [10^6 cells suspended in 100 μl Matrigel (Corning Life Sciences, Corning, N.Y.)] were subcutaneously injected in the flanks of 6 week old male nude mice (n=6 per treatment group). Tumor measurements were recorded daily with calipers (greatest length and greatest width) and final tumor volumes calculated via tumor volume V=(length×width)×½. Treatment groups consisted of: 1) control (PBS injections)+blank (no drug) PLGA implants, 2) 2-ME (1 μg/100 μl PBS, b.i.d.)+blank PLGA implant, 3) 4-HPR releasing PLGA implant+PBS injections, 4) TOC q.d. (0.3 μg/100 μl PBS)+PLGA blank implant, 5) 2-ME (1 μg/100 μl PBS, b.i.d.)+4-HPR releasing PLGA implant, 6) 2-ME (1 μg/100 μl PBS, b.i.d.)+TOC q.d. (0.3 μg/100 μl PBS)+blank PLGA implant, 7) TOC q.d. (0.3 μg/100 μl PBS)+4-HPR releasing PLGA implant, 8) 2-ME (1 μg/100 μl PBS, b.i.d.)+TOC q.d. (0.3 μg/100 μl PBS)+4-HPR releasing PLGA implant. By day 14 post injection, all mice had measurable tumors and treatment began on day 15. […] Pretreatment mean tumor volumes therefore varied among treatment groups. PLGA implants (via trocar) and injections were placed in the center of the tumor. At day 28 post OSCC xenograft placement final tumor measurements were obtained, the mice were euthanized and OSCC tumors along with lung, liver and sera were harvested for pharmacokinetic, histologic and IHC analyses (Ki-67, cleaved caspase-3 and involucrin). Image analyses of the nuclear stains (Ki-67 and cleaved caspase 3) were conducted using Image-Pro Plus 6.2 software (Media Cybernetics, Rockville, Md.).

[4] = cited from earlier work
[5] = tested on: HNSCC tumor; settings: 100 μg i.p., scid mice, reference 48; cited from earlier work
[6] = 4-HPR release from PLGA implants, tumor and sera levels (UPLC/UV); assay type: in vivo, nude mice; settings: UPLC/UV vs calibration standard
Excerpt: Determination of 4-HPR tumor levels entailed recording tumor wet mass, addition of internal standard (acitretin) and RIPA lysis buffer, followed by homogenization, addition of acetonitrile and centrifugation. Acetretin percent recovery was compared to a RIPA buffer/acetonitrile extraction control solution spiked with equivalent amount of acetretin and 4-HPR. Sera preparation entailed addition of acetretin and acetonitrile, sonication, followed by centrifugation.
as §1

[7] = tested on: NF-κB subunits p65 and p50; test: NF-κB subunit DNA binding and activation in OSCC cells; assay type: cell-based, human; settings: data not shown
Description: Twenty four hour sera-deprived cells were treated for an additional 24 hours in sera free media with the following: 1) 0.01% DMSO (vehicle control), 2) 5 μM 4-HPR, 3) 2.5 μM 2-ME, 4) 1 μg/ml tocilizumab (TOC, […]) 5) 5 μM 4-HPR+2.5 μM 2-ME, 6) 5 μM 4-HPR+1 μg/ml TOC, 7) 2.5 μM 2-ME+1 μg/ml TOC, 8) 5 μM 4-HPR+2.5 μM 2-ME+1 μg/ml TOC. Following treatment, conditioned media were collected (ELISAs for IL-6, sIL-6R, TGF-α, VEGF, EGF, R&D Systems, Minneapolis, Minn.) and nuclear and cytosolic lysates (Nuclear Extract Kit, Active Motif, Carlsbad, Calif.) isolated for EMSAs (STAT3, NFκB p50 and p65, TransAM Transcription Factor ELISAs, Active Motif) and cytosolic and nuclear extracts for Westerns (NE-PER Nuclear and Cytoplasmic Extraction Reagents, ThermoFisher Scientific, Waltham Mass.). […]

[8] = tested on: SCC2095sc cells; test: IHC of OSCC xenograft tumors (Ki-67, cleaved caspase 3, involucrin); assay type: in vivo, nude mice; settings: qualitative
Excerpt: IHC images representative of all of the groups are presented. The PLGA implants are visible as a clear cylindrical object in every photomicrograph except the TOC and 2-ME+TOC treatment. To facilitate PLGA implant recognition, arrows have been placed within the implants. Both the Ki-67 and caspase 3 stains are located within the nucleus. Qualitative Ki67 staining assessment was most apparent at the periphery of the tumors in all groups. In contrast to the abundant Ki-67 staining, cleaved caspase 3 was not nearly as prominent.
(Image scale 4× and 10× for smaller and larger photomicrographs, respectively).
SCC2095sc cells [10^6 cells suspended in 100 μl Matrigel (Corning Life Sciences, Corning, N.Y.)] were subcutaneously injected in the flanks of 6 week old male nude mice (n=6 per treatment group). Tumor measurements were recorded daily with calipers (greatest length and greatest width) and final tumor volumes calculated via tumor volume V=(length×width)×½. Treatment groups consisted of: 1) control (PBS injections)+blank (no drug) PLGA implants, 2) 2-ME (1 μg/100 μl PBS, b.i.d.)+blank PLGA implant, 3) 4-HPR releasing PLGA implant+PBS injections, 4) TOC q.d. (0.3 μg/100 μl PBS)+PLGA blank implant, 5) 2-ME (1 μg/100 μl PBS, b.i.d.)+4-HPR releasing PLGA implant, 6) 2-ME (1 μg/100 μl PBS, b.i.d.)+TOC q.d. (0.3 μg/100 μl PBS)+blank PLGA implant, 7) TOC q.d. […]

[9] = In vitro release of 2-ME from PLGA; assay type: physicochemical; settings: two low molecular weight acid-capped PLGA 50/50s, 10% 2-ME loading
Excerpt: In one embodiment, 2-ME in PLGA can maximize drug loading and facilitate continuous release of the steroid over the correct time scale of release in vivo. Maximizing drug loading can provide more flexibility for dosing and increase the probability of attaining local therapeutic levels. IN one embodiment, the steroid is slowly and continuously released for >1 month in vitro from two different low molecular weight acid-capped PLGA 50/50s at 10% 2-ME loading.
2-ME with/without excipients can be combined with acid-capped PLGA 50/50 (13-24 kD) in acetone and extruded. Drug loading is typically about 10-50%. Drug loading can be determined by HPLC after dissolving implants in acetonitrile. Release kinetics in vitro can be performed in PBS+0.02% Tween 80 (PBST) at 37° C. under perfect sink conditions with HPLC detection.

Molecule: COC(=O)c1ccc2c(c1)NC(=O)/C2=C(\Nc1ccc(N(C)C(=O)CN2CCN(C)CC2)cc1)c1ccccc1 [Vargatef]
phosphorylated STAT3 despite treatment ([1]; JSCC1 and JSCC2 cells): high to moderate levels of phosphorylated STAT3 persisted; also recorded: pSTAT3 persisted | phosphorylation at the EGFR, ERK1/2 and STAT3 levels ([1]; JSCC3 cells, 1 h pretreatment, EGF/VEGF stimulation): reduced phosphorylation; also recorded: blocked STAT3 phosphorylation

Molecule: TOC: humanized monoclonal antibody to the IL-6R receptor tocilizumab
sIL-6R release [2]: significantly reduced | sIL-6R release ([2]; listed as tocilizumab): significantly inhibited | mean tumor fold size increase ([3]; day 15 to day 28, intratumoral treatment): 2.13 fold | inhibition of established OSCC tumor growth / tumor size [3]: significantly inhibited OSCC tumor growth | increase in tumor volume over 14 days ([3]; intratumoral, TOC 0.3 μg q.d., 2-ME 1 μg b.i.d., 4-HPR PLGA implant, paired t test): prevented a significant increase in tumor volume | half-life [4]: ~19 h | HNSCC tumor initiation [5]: significantly reduced HNSCC tumor initiation | established tumor growth [5]: didn't significantly inhibit established tumor growth

oxidized metabolite in tumor or sera samples [6]: no evidence
Molecule: CC1=C(/C=C/C(C)=C/C=C/C(C)=C/C(=O)Nc2ccc(O)cc2)C(C)(C)CCC1=O [4-oxo-4-HPR, 4-oxo-fenretinide]

duration of slow continuous release in vitro [9]: > 1 month
Molecule: COc1cc2c(cc1O)CC[C@@H]1[C@@H]2CC[C@]2(C)[C@@H](O)CC[C@@H]12 [2-ME, 2-Methoxyestradiol]
NF-κB activation in OSCC cells [7]: didn't inhibit | tumor cell invasion and metastasis ([3]; 2-ME treatment group): Lymphovascular (several mice) and perineural (single mouse) invasion | inhibition of established OSCC tumor growth / tumor size [3]: lack of 2-ME efficacy | involucrin expression (differentiation) [8]: most intense expression | half-life [4]: ~4 h
